Data from ChEMBL document CHEMBL1177708, “Design, synthesis, and biological evaluation of a novel class of gamma-secretase modulators with PPARgamma activity” (J Med Chem, 2010).
Activity calls are given as the source filed them. The calls are words filed in the database; no cut-off is given here.

Tests used:
[1] = molecular target: T1, Prostaglandin G/H synthase 1 (Ovis aries, UniProt P05979)
T1 sequence (P05979 whole entry): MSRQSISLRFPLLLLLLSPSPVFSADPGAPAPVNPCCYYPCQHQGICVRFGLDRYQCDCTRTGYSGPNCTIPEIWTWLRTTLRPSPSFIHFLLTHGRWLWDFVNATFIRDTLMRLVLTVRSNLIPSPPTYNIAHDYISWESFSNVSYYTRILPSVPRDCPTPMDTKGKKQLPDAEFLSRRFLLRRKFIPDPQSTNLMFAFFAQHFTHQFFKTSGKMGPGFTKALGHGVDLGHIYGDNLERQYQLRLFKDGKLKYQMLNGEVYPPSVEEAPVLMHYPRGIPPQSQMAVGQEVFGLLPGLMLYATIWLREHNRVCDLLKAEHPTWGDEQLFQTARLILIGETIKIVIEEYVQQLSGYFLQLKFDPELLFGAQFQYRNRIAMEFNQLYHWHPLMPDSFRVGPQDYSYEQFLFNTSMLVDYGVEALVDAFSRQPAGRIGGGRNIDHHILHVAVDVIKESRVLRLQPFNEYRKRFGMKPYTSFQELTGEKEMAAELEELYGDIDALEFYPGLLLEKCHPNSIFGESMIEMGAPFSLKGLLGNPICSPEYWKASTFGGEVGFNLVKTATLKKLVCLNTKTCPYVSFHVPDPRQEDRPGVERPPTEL
Description: Inhibition of ovine COX1 after 5 mins

[2] = cells; conditions: CHO, 24 h
Description: Modulation of gamma-secretase-mediated cleavage of human APP expressed in CHO cells with human presenilin-1 assessed as inhibition of amyloid beta42 production after 24 hrs by ELISA

[3] = molecular target: T2, Prostaglandin G/H synthase 2 (Homo sapiens) (UniProt P35354); test: Inhibition of human recombinant COX2 assessed as residual activity at 10 uM after 5 mins
T2 sequence (whole entry): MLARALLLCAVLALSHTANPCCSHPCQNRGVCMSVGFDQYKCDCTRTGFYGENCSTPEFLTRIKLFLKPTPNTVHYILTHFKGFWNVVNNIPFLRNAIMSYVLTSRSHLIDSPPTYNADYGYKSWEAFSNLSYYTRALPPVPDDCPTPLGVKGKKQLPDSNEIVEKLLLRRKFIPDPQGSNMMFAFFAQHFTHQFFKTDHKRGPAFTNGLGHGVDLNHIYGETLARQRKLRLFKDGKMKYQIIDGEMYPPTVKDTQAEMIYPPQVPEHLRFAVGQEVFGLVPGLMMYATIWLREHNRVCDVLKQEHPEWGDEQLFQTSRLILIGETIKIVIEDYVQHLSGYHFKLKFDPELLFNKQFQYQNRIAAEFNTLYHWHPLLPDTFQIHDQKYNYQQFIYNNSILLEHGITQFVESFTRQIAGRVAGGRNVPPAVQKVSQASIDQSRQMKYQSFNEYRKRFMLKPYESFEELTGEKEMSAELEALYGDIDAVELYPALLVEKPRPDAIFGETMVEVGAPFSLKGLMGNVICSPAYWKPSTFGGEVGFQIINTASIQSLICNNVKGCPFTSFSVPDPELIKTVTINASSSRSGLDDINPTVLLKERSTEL

[4] = molecular target: T3, Peroxisome proliferator-activated receptor alpha (Homo sapiens) (UniProt Q07869); test: Agonist activity at human PPARalpha-LBD expressed in COS7 cells co-transfected with Gal4 at 10 uM by luciferase based transactivation assay; type: functional, cell-based; conditions: COS-7
T3 sequence (whole entry): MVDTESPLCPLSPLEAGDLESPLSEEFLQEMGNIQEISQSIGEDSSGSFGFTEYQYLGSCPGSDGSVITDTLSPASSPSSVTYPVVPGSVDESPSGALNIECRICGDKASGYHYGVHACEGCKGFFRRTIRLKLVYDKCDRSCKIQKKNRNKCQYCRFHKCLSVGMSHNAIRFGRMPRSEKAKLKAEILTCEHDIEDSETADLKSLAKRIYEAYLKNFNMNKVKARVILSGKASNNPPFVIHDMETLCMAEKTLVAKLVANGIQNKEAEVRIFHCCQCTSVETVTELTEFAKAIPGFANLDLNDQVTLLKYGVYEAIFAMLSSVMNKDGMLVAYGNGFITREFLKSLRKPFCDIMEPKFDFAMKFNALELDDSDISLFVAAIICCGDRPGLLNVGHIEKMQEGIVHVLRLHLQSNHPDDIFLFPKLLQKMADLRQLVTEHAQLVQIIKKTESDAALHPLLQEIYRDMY

[5] = molecular target: T4, Peroxisome proliferator-activated receptor delta (Homo sapiens) (UniProt Q03181); test: Agonist activity at human PPARdelta-LBD expressed in COS7 cells co-transfected with Gal4 at 10 uM by luciferase based transactivation assay; type: functional, cell-based; conditions: COS-7
T4 sequence (whole entry): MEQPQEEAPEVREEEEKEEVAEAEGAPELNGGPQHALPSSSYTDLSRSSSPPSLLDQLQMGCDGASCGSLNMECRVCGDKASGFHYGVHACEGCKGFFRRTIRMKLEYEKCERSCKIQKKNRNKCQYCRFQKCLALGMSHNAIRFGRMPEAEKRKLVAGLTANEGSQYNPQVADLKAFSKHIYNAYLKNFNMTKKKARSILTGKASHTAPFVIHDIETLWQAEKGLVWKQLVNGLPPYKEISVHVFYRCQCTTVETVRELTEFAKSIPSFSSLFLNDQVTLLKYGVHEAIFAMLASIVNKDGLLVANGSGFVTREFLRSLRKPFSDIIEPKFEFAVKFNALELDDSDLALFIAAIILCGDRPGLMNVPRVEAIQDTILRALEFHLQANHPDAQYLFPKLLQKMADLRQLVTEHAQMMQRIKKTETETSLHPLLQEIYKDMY

[6] = molecular target: T5, Peroxisome proliferator-activated receptor gamma (Homo sapiens) (UniProt P37231); test: Agonist activity at human PPARgamma-LBD expressed in COS7 cells co-transfected with Gal4 at 20 uM by luciferase based transactivation assay; type: functional, cell-based; conditions: COS-7
T5 sequence (whole entry): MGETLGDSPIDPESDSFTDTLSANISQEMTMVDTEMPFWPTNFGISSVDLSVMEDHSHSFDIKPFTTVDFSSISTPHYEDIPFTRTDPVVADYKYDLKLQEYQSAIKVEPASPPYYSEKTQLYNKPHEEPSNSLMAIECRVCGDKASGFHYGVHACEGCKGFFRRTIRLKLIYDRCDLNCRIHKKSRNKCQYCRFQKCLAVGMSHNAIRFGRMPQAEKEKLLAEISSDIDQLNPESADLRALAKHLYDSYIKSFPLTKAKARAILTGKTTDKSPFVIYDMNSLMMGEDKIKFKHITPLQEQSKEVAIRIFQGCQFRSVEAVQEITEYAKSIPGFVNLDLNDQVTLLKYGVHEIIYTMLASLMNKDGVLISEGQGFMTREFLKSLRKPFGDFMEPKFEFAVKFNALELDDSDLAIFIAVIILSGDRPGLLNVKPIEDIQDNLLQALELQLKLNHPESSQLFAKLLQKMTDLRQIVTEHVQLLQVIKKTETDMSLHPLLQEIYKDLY

[7] = Modulation of gamma-secretase-mediated cleavage of human APP expressed in CHO cells with human presenilin-1 assessed as activation of amyloid beta38 production after 24 hrs by ELISA; type: cell-based
[8] = test system: CHO; test: Cytotoxicity against CHO cells at 60 uM after 24 hrs by Alamar blue assay; type: cell-based, Cricetulus griseus; conditions: chinese hamster
[9] = molecular target: T6, Prostaglandin G/H synthase 1 (Ovis aries) (UniProt P05979); test: Inhibition of ovine COX1 assessed as residual activity at 10 uM after 5 mins
T6 sequence (whole entry): T1 sequence (P05979 whole entry)

[10] = molecular target: T5, Peroxisome proliferator-activated receptor gamma (Homo sapiens); test: Agonist activity at human PPARgamma-LBD expressed in COS7 cells co-transfected with Gal4 at 10 uM by luciferase based transactivation assay; conditions: COS-7
[11] = molecular target: T5, Peroxisome proliferator-activated receptor gamma (Homo sapiens); test: Agonist activity at human PPARgamma-LBD expressed in COS7 cells co-transfected with Gal4 at 6 uM by luciferase based transactivation assay; type: functional, cell-based; conditions: COS-7
[12] = molecular target: T5, Peroxisome proliferator-activated receptor gamma (Homo sapiens); test: Agonist activity at human PPARgamma-LBD expressed in COS7 cells co-transfected with Gal4 at 10 uM by luciferase based transactivation assay; type: functional, cell-based; conditions: COS-7
[13] = test system: CHO; test: Modulation of gamma-secretase-mediated notch signaling expressed in CHO cells transfected with Gal4-DNA-binding/VP16 transactivation domain assessed as reduction of reporter activity at 0.5 uM after 24 hrs; type: cell-based
[14] = molecular target: T7, Peroxisome proliferator-activated receptor gamma (Homo sapiens, UniProt P37231); test: Agonist activity at human PPARgamma-LBD expressed in COS7 cells co-transfected with Gal4 by luciferase based transactivation assay; type: functional, cell-based, COS-7
T7 sequence (P37231 whole entry): T5 sequence (whole entry)

[15] = molecular target: T5, Peroxisome proliferator-activated receptor gamma (Homo sapiens); test: Agonist activity at human PPARgamma-LBD expressed in COS7 cells co-transfected with Gal4 by luciferase based transactivation assay relative to pioglitazone; type: functional, cell-based; conditions: COS-7
[16] = test system: CHO; test: Modulation of gamma-secretase-mediated notch signaling expressed in CHO cells transfected with Gal4-DNA-binding/VP16 transactivation domain assessed as reduction of reporter activity at 5 to 40 uM after 24 hrs; type: cell-based
[17] = test system: CHO; test: Cytotoxicity against CHO cells at 40 uM after 24 hrs by Alamar blue assay; type: cell-based, Cricetulus griseus; conditions: chinese hamster
[18] = molecular target: T1, Prostaglandin G/H synthase 1; remark: listed apart in the source
Description: Inhibition of ovine COX1 after 5 mins

Row | Structure (SMILES) | IC50 [1] | IC50 [2] | Activity [3] | Activity [4] | Activity [5] | Activity [6] | EC50 [7] | Activity [8] | Activity [9] | Activity [10] | Activity [11] | Activity [12] | Activity [13] | EC50 [14] | Emax [15] | Activity [16] | Activity [17] | IC50 [18]
1 | C[C@@H](C(=O)O)c1ccc(-c2ccccc2)c(F)c1 [TARENFLURBIL] | Not Active | 305 µM | – | – | – | – | – | – | – | – | – | – | – | – | – | – | – | –
2 | CCCCC(Sc1nc(OCc2ccccc2)cc(OCc2ccccc2)n1)C(=O)O (stereo not given) | – | 25.2 µM | 61.6% | inactive | inactive | 31% | 24.2 µM | Non-toxic | 88.9% | – | – | – | – | – | – | – | – | –
3 | CCCCC(Sc1nc(OCCC2CCCCCC2)cc(OCCC2CCCCCC2)n1)C(=O)O (stereo not given) | – | 11.3 µM | 50.1% | inactive | inactive | – | 1.9 µM | Non-toxic | 56.1% | inactive | – | – | – | – | – | – | – | –
4 | CCCCC(Sc1nc(OCCc2ccc([N+](=O)[O-])cc2)cc(OCCc2ccc([N+](=O)[O-])cc2)n1)C(=O)O (stereo not given) | – | 31.2 µM | 91.6% | inactive | inactive | – | – | Non-toxic | 82.1% | – | 33% | – | – | – | – | – | – | –
5 | CCCCC(Sc1nc(OCCc2ccc(OC)cc2)cc(OCCc2ccc(OC)cc2)n1)C(=O)O (stereo not given) | – | 19.3 µM | 94.6% | inactive | inactive | – | 6.2 µM | Non-toxic | 72.8% | – | – | 23% | – | – | – | – | – | –
6 | CC(C)C[C@H](NC(=O)[C@H](Cc1ccccc1)C[C@@H](O)[C@H](Cc1ccccc1)NC(=O)OC(C)(C)C)C(=O)N[C@@H](Cc1ccccc1)C(N)=O | – | – | – | – | – | – | – | – | – | – | – | – | Active | – | – | – | – | –
7 | CCCCC(Sc1nc(OCCc2ccc(C(F)(F)F)cc2)cc(OCCc2ccc(C(F)(F)F)cc2)n1)C(=O)O (stereo not given) | – | 6 µM | 69% | inactive | inactive | – | 1.8 µM | 25% | 54.4% | – | – | – | – | 11 µM | 112% | inactive | Non-toxic | 16.9 µM
8 | O=C(O)C(Sc1nc(OCCc2ccccc2)cc(OCCc2ccccc2)n1)c1ccccc1 (stereo not given) | – | 29.3 µM | 86% | inactive | inactive | – | 12.8 µM | Non-toxic | 72.2% | inactive | – | – | – | – | – | – | – | –
9 | CCCC[C@@H](Sc1nc(OCCc2ccccc2)cc(OCCc2ccccc2)n1)C(=O)O | – | 21.5 µM | 98.5% | inactive | inactive | – | 8.4 µM | Non-toxic | 73.9% | – | – | 22% | – | – | – | – | – | –
10 | CCCCC(Sc1nc(OCCc2ccsc2)cc(OCCc2ccsc2)n1)C(=O)O (stereo not given) | – | 37.7 µM | 102% | inactive | inactive | 32% | 17.5 µM | Non-toxic | 76.6% | – | – | – | – | – | – | – | – | –
